We go through 2 compounds from US20130041005A1, “PHARMACEUTICAL COMPOSITIONS COMPRISING NEUROPILIN INHIBITORS, AND THEIR USE FOR THE PREVENTION AND/OR TREATMENT OF ANGIOGENIC DISORDERS AND CANCERS” (TRAGEX PHARMA, priority 2011, published 2013).

Data set [1] concerns NCI-H460. Put plainly: WST-1 proliferation assay, NCI-H460. It counts as cell-based. The conditions noted are these: Homo sapiens; Lung NCI-H460; read-out: Anti-proliferative activity IC50 (μM) ± SD. As to the method:
(§1) All the cancer cell lines were maintained in cultured in DMEM GlutaMAX™ (GIBCO Invitrogen, France, cat no 31966047) enhanced with 10% foetal bovine serum (GIBCO Invitrogen, France, cat no 10270-106) and 1% penicillin G/streptomycin (GIBCO Invitrogen, France, cat no 15140-122). Only Panc-10.5 cells were cultivated in RPMI 1640 medium (Gibco) supplemented with 2 mM L-glutamine, 1.5 g/L sodium bicarbonate, 4.5 g/L glucose, 10 mM HEPES, 1 mM sodium pyruvate, 10 Units/ml human insulin, […] (SVF): 15% (75 ml in 500 ml of medium).
(§2) Cells were grown as subconfluent monolayer and cultured in 75 cm^2 flasks at 37° C., 5% CO2 in a humidified atmosphere, and medium was changed every two days. […]
(§3) The cell proliferation WST-1 assay is a colorimetric assay for the quantification of cell proliferation and viability, based on the enzymatic cleavage of the tetrazolium salt WST-1 added to the culture medium, to a water soluble colored formazan dye, detected by absorbance at 450 nm, by mitochondrial succinate-tetrazolium reductase in viable cells. […]
(§4) After an incubation period of 72 h, at day 4, were prepared the 19 ml medium with reagent WST-1 1 ml ([…]). […] The cells were incubated at 37° C. in a humidified atmosphere of 5% CO2 for 1 h 30 and the absorbance at 450-655 nm was measured by Microplate Manager 5.2 (Bio-Rad).
(In general: Tetrazolium assays rely on reduction of a dye to a coloured formazan, in cell work by metabolically active cells.)

The target of data set [2] is T1, NRP-1 (Homo sapiens, UniProt O14786).
T1 construct: purchased R&D Systems, UK 3870-N1-025
T1 sequence (O14786 22-644 isoform O14786-2 limits assumed): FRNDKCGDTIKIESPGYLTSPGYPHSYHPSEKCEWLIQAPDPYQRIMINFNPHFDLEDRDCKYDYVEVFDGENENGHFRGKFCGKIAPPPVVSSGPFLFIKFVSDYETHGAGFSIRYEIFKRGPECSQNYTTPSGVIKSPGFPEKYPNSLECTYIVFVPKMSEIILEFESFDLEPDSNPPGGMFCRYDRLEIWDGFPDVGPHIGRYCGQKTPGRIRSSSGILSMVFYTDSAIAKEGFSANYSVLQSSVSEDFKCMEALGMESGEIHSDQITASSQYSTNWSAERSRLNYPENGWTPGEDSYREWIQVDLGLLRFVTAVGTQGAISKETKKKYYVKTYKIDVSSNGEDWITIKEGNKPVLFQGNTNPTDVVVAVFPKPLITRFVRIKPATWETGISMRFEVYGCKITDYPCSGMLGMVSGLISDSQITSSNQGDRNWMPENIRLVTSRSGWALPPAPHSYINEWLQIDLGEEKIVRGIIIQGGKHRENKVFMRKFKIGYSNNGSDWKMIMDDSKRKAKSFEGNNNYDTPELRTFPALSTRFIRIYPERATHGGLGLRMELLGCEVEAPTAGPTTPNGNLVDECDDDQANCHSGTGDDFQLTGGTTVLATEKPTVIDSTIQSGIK
The data set is described as follows: ELISA inhibition of VEGF binding to NRP-1. Particulars: for inhibition at 10 µM: compounds at 10 μM. As to the method: (§5) Elisa test was performed covering a 96-well microplate (BD Biosciences, France, cat no 353046) surface with 100 μl of 1×PBS, pH 7.4 with Ca^2+ and Mg^2+, (Lonza, France, cat no 17-513F/12) solution containing 0.2 μg/ml of VEGF-R1 (R&D Systems, UK, cat no 321-FL-050/CF) or 2 μg/ml of NRP-1 (R&D Systems, UK, cat no 3870-N1-025) or NRP-2 (R&D Systems, UK, cat no […]). The plate was sealed and incubated overnight at 4° C. After 3 washes with 200 μl of 1×PBS 0.5% (v/v) Tween 20 (Sigma, France, cat no 34078) (Buffer A), the plate was blocked by adding 200 μl of 1×PBS with 0.5% (w/v) BSA (Eurobio, France, cat no GAUBSA01-65) and agitated at 37° C. for 2 h. After washing five times with Buffer A, 50 μl/well of the compounds of the invention at 10 μM were added for the specific signal and 50 μl/well for the non-specific and max binding signal and incubated at 37° C. for 1 hour, shacking. 50 μl of btVEGF (R&D Systems, UK, cat no NFVEO) at 200 μg/ml for NRP-1/4 μg/ml Heparin (Sigma, USA, cat no H3393-10KU), 300 μg/ml for NRP-2 and 100 μg/ml for VEGF-R1 solution was added to each well; the plate was sealed and incubated at 37° C. for 2 h, shacking. The last incubation was carried out, after five washes with Buffer A, adding 100 μl/well Streptavidin-Horseradish Peroxidase (Amersham, Switzerland, cat no RPN4401) diluted 1:8000 with buffer A. After 1 h shacking at 37° C. under obscurity, the plate was washed 5 times with buffer A and 100 μl of SuperSignal west picochemiluminescent substrate (Interchim, USA cat no 34078) were added. Luminescence was quantified with an EnVision™ 2101 Multilabel reader (Perkin Elmer, USA) and the data analyzed by Wallac Envision manager software. Signal is given as relative light units (RLU). Non-specific binding is defined as the signal measured in the absence of receptor coated on the microplate. The specific binding was calculated as the difference between total binding and non-specific binding. The percentage of inhibition was calculated as following: […]

In data set [3] the target is T2, NRP-2 (Homo sapiens, UniProt O60462).
T2 construct: fused on or other part: Possibly an Fc or His tag on the purchased soluble ectodomain
T2 sequence (O60462 whole entry, the tested form may be a part): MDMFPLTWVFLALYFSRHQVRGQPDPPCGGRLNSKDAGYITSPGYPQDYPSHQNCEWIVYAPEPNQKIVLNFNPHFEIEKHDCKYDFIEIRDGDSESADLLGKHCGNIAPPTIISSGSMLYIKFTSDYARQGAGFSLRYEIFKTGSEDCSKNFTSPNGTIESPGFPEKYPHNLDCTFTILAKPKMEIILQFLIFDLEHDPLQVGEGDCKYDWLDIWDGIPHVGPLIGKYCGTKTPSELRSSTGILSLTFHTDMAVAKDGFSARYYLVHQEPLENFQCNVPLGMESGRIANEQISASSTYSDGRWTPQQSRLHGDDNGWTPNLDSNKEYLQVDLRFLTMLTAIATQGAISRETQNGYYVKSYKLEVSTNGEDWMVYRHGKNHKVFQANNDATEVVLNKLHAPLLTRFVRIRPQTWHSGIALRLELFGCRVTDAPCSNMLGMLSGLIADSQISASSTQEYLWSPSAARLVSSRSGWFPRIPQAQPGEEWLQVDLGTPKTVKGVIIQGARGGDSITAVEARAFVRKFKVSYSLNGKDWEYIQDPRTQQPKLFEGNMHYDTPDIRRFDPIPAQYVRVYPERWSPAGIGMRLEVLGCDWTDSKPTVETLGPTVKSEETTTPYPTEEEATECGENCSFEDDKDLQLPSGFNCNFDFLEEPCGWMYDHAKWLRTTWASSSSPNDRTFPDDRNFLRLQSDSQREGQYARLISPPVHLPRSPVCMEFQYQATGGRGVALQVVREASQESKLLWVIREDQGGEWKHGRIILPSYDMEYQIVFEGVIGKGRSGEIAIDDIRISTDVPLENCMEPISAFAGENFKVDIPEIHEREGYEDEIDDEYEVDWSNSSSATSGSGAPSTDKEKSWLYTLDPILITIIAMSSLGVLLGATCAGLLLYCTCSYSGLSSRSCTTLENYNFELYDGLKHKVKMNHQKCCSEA
Put plainly: ELISA inhibition of VEGF binding to NRP-2. As to the method: as §5, with “50 μl of btVEGF (R&D Systems, UK, cat no NFVEO) at 200 μg/ml for NRP-1/4 μg/ml Heparin (Sigma, USA, cat no H3393-10KU), 300 μg/ml for NRP-2 and 100 μg/ml for VEGF-R1 solution was added to each well; the plate was sealed and incubated at 37° C. for 2 h, shacking. The last incubation was carried out, after five washes with Buffer A, adding 100 μl/well Streptavidin-Horseradish Peroxidase (Amersham, Switzerland, cat no RPN4401) diluted 1:8000 with buffer A. After 1 h shacking at 37° C. under obscurity, the plate was washed 5 times with buffer A and 100 μl of SuperSignal west picochemiluminescent substrate (Interchim, USA cat no 34078) were added.” left out, “Signal is given as relative light units (RLU).” left out

Data set [4] relates to HUVEC cells. Put plainly: WST-1 proliferation assay, HUVEC. It counts as cell-based. Particulars: for cytotoxicity for endothelial cell lines (HUVEC cells) in culture: FIG. 1 cell survival; for IC50: Homo sapiens, HUVEC, 72 h, read-out: Anti-proliferative activity on HUVEC cells (IC50). As to the method: Cells were grown as subconfluent monolayer and cultured in 75 cm^2 flasks at 37° C., 5% CO2 in a humidified atmosphere, and medium was changed every two days. Only cells from passages 2-6 were used for the experiments.
All cells were detached with 3 ml of trypsin/EDTA (chelator of calcium and magnesium ions) (Lonza), incubated for 5 min at 37° C., and examined using a microscope to ensure that the cells were detached and floating. […] The supernatant was removed and the cell pellet resuspended in […] of culture medium. 50 μl of this solution were transferred in 20 μl of isotonic solution and the cells were counted by count cellular (Beckman Coulter).
The cell proliferation WST-1 assay is a colorimetric assay for the quantification of cell proliferation and viability, based on the enzymatic cleavage of the tetrazolium salt WST-1 added to the culture medium, to a water soluble colored formazan dye, detected by absorbance at 450 nm, by mitochondrial succinate-tetrazolium reductase in viable cells. An augmentation in enzyme activity will then lead to an increase in the amount of formazan dye formed, which directly correlates to the number of metabolically active cells in the culture.
After an incubation period of 72 h, at day 4, were prepared the […] medium with reagent WST-1 […] ([…]). The medium was removed from the 96 microplate and 200 μl of solution WST-1/medium were added for each well. The cells were incubated at 37° C. in a humidified atmosphere of 5% CO2 for 1 h 30 and the absorbance at 450-655 nm was measured by Microplate Manager 5.2 (Bio-Rad).

Data set [5] relates to ERY-1. The data set is described as follows: WST-1 proliferation assay, ERY-1. It counts as cell-based. Particulars: Homo sapiens; Erythroleukemia ERY-1; read-out: Anti-proliferative activity IC50 (μM) ± SD. As to the method: as §1, §2, §3, §4

Usually IC50 stands for the point on the concentration scale where inhibition reaches its midpoint. One may read the inhibition as the share of the control response that was lost under treatment. The low end stands for little suppression, the high end for strong suppression. For the compound `Cc1ccc(-c2nc3ccccc3[nH]2)cc1NC(=S)NC(=O)c1ccc2c(c1)OCCO2` [Compound 1, N-[5-(1H-benzimidazol-2-yl)-2-methylphenyl]-N′-(2,3-dihydro-1,4-benzodioxin-6-ylcarbonyl)thiourea], the IC50 was determined as 0.5 ± 0.09 µM in data set [1]; 38000 ± 2080 nM in data set [2]; 42000 ± 3150 nM in data set [3]; 200 ± 10 nM in data set [4]; 0.3 ± 0.04 µM in data set [5]. Moreover, in data set [2], the inhibition at 10 µM was 35 ± 4%. In data set [4], the “cytotoxicity for endothelial cell lines (HUVEC cells) in culture” value is “cytotoxic”.
As for `O=C(NC(=S)Nc1cccc(-c2nc3ccccc3[nH]2)c1)c1ccc2c(c1)OCCO2` [Compound 2, N-[3-(1H-benzimidazol-2-yl)phenyl]-N′-(2,3-dihydro-1,4-benzodioxin-6-ylcarbonyl)thiourea], the IC50 stood at 0.3 ± 0.04 µM in data set [1]; 34000 ± 3110 nM in data set [2]; 35000 ± 5230 nM in data set [3]; 50 ± 10 nM in data set [4]; 0.1 ± 0.05 µM in data set [5]. Besides, in data set [2], 10 µM produced 24 ± 2% inhibition. Moreover, the “cytotoxicity for endothelial cell lines (HUVEC cells) in culture” value in data set [4] is given as “cytotoxic”.
